Results reported in the supplement of paper PMC10011410.

What was measured:
U-2 OS [1] = assay: cell painting activity score (Mahalanobis distance from DMSO wells); higher = stronger morphological phenotype; details: 24 h
Method: (§1)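 Cell painting in U-2 OS cells (384-well, about 1,500 cells per well), compound exposure 24 h, usually six 2-fold concentrations from 20 to 0.625 uM (some compounds higher or lower). Relative cell count is the cell number per well relative to DMSO wells. Activity score is the Mahalanobis distance of the morphological profile from DMSO control wells. Mean of four technical replicate plates.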

U-2 OS [2] = assay: relative cell count vs DMSO (cell painting) (fraction of DMSO control); higher = more cells remaining (less cytotoxic); details: 24 h
Method: as §1

U-2 OS [3] = assay: AUC of culture confluence over time (live-cell imaging) (AUC (confluence % x time)); higher = more confluent culture (less growth inhibition)
Method: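 Live-cell Incucyte imaging of U-2 OS cells in F-12K medium. Compounds were tested mostly at 5, 10 and 20 uM, and cells were imaged every 4 h for up to 60 h. Value is the area under the curve of phase-contrast confluence over time.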

| Structure (SMILES) | cell painting activity score (U-2 OS [1]; 0.625 µM) | cell painting activity score (U-2 OS [1]; 1.25 µM) | cell painting activity score (U-2 OS [1]; 2.5 µM) | cell painting activity score (U-2 OS [1]; 5 µM) | cell painting activity score (U-2 OS [1]; 10 µM) | cell painting activity score (U-2 OS [1]; 20 µM) | relative cell count (U-2 OS [2]; 0.625 µM) | relative cell count (U-2 OS [2]; 1.25 µM) | relative cell count (U-2 OS [2]; 2.5 µM) | relative cell count (U-2 OS [2]; 5 µM) | relative cell count (U-2 OS [2]; 10 µM) | relative cell count (U-2 OS [2]; 20 µM) | AUC of culture confluence over time (U-2 OS [3]; 5 µM) | AUC of culture confluence over time (U-2 OS [3]; 10 µM) | AUC of culture confluence over time (U-2 OS [3]; 20 µM) |
| --- | --- | --- | --- | --- | --- | --- | --- | --- | --- | --- | --- | --- | --- | --- | --- |
| O=C(OC[C@H]1O[C@@H](OC(=O)c2cc(O)c(O)c(OC(=O)c3cc(O)c(O)c(O)c3)c2)[C@H](OC(=O)c2cc(O)c(O)c(OC(=O)c3cc(O)c(O)c(O)c3)c2)[C@@H](OC(=O)c2cc(O)c(O)c(OC(=O)c3cc(O)c(O)c(O)c3)c2)[C@@H]1OC(=O)c1cc(O)c(O)c(OC(=O)c2cc(O)c(O)c(O)c2)c1)c1cc(O)c(O)c(OC(=O)c2cc(O)c(O)c(O)c2)c1 | 4.17 | 4.59 | 6.15 | 5.91 | 6.39 | 8.09 | 1.02 | 1.02 | 1.02 | 0.945 | 0.945 | 0.697 | 48.2 | 48.5 | 27.9 |
| Cn1ncnc2c(=O)n(C)c(=O)nc1-2 | 14.5 | 14 | 15.7 | 30 | 30.1 | 29 | 0.575 | 0.386 | 0.0951 | 0.0345 | 0.021 | 0.0323 | 16.9 | 16.5 | 14.2 |
| C[C@@H]1C[C@@H]([C@H](O)CC2CC(=O)NC(=O)C2)C(=O)[C@@H](C)C1 | 9.38 | 9.5 | 11.4 | 11.5 | 12.8 | 14.2 | 0.783 | 0.651 | 0.576 | 0.534 | 0.475 | 0.479 | 21 | 19.4 | 20.1 |
| CC1OC2=C(C(=O)C(=O)c3ccccc32)C1(C)C (stereo not given) | 15 | 17.1 | 20.7 | 25.1 | 33.8 | 34.2 | 0.845 | 0.561 | 0.299 | 0.207 | 0.14 | 0.134 | 19.5 | 18.5 | 16 |
| O=c1c2ccccc2[se]n1-c1ccccc1 | 4.12 | 5.85 | 11.4 | 12.8 | 12.8 | 18 | 0.989 | 0.995 | 0.973 | 0.98 | 0.521 | 0.312 | 49.5 | 33.9 | 22.3 |
| NC(=O)c1ccc(I)c([N+](=O)[O-])c1 | 3.13 | 3.07 | 2.86 | 3.68 | 3.09 | 3.55 | 1.01 | 1.07 | 1.05 | 1.04 | 1.06 | 1.07 | 56.5 | 53.5 | 50.1 |
| CNC(=O)c1cc(Oc2ccc(NC(=O)Nc3ccc(Cl)c(C(F)(F)F)c3)cc2)ccn1 | 10.7 | 11.4 | 10.3 | 12.4 | 9.94 | 10.5 | 1.02 | 0.956 | 0.971 | 0.978 | 0.705 | 0.348 | 50.1 | 29.6 | 15.6 |
| COc1cc([C@@H]2c3cc4c(cc3[C@H](O)[C@H]3COC(=O)[C@H]23)OCO4)cc(OC)c1OC | 23.6 | 24.1 | 23.9 | 21 | 21 | 22 | 0.209 | 0.195 | 0.195 | 0.199 | 0.187 | 0.179 | 15.2 | 15.6 | 20.8 |
| O.O=P1(N(CCCl)CCCl)NCCCO1 (stereo not given) | 3.69 | 3.83 | 3.34 | 3.43 | 4.46 | 9.23 | 0.967 | 0.999 | 0.965 | 0.985 | 0.993 | 0.941 | 43.1 | 41.1 | 44.2 |
